Results published in US8748417B2, “Amino-pyrrolidine-azetidine diamides as monoacylglycerol lipase inhibitors” (Janssen Pharmaceutica, NV, priority 2010, dated 2014).
Changes are numbered by the printed parent chain.

Assays:
[1] = molecular target: T1, purified mutant MGL (mut-MGLL 11-313 L179S L186S) (Homo sapiens, UniProt Q99685, L169S/L176S); assay: MGL enzyme activity assay (4MU-B cleavage), mutant MGL; format: biochemical; conditions: mutant MGL 5 nM, 4MU-B 10 μM, 37° C.; read-out: MGL mutant inh IC50
T1 construct: purified mutant MGL (mut-MGLL 11-313 L179S L186S)
T1 sequence (Q99685 1-303 L169S/L176S): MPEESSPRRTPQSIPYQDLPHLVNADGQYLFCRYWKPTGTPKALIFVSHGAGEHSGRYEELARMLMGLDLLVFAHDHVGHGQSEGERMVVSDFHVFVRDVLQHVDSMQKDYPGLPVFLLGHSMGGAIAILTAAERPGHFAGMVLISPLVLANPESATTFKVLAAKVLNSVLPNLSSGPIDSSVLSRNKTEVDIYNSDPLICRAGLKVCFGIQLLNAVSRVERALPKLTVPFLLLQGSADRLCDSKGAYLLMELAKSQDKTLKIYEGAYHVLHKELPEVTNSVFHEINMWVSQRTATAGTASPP
Protocol: All rate-based assays were performed in black 384-well polypropylene PCR microplates (Abgene) in a total volume of 30 μL. Substrate 4-methylumbelliferyl butyrate (4MU-B; Sigma) and either purified mutant MGL (mut-MGLL 11-313 L179S L186S) or purified wild type MGL (wt-MGLL 6H-11-313) were diluted separately into 20 mM PIPES buffer (pH=7.0), containing 150 mM NaCl and 0.001% Tween 20. Compounds of Formula (I) were pre-dispensed (50 nL) into the assay plate using a Cartesian Hummingbird prior to adding 4MU-B (25 μL of 1.2× solution to a final concentration of 10 μM) followed by enzyme (5 μL of a 6× solution to a final concentration of 5 nM) to initiate the reaction. Final compound concentrations ranged from 17 to 0.0003 μM. The fluorescence change due to 4MU-B cleavage was monitored with excitation and emission wavelengths of 335 and 440 nm, respectively, and a bandwidth of 10 nm (Safire^2, Tecan) at 37° C. for 5 min.
The IC50 values for the following compounds were determined using Microsoft Office Excel from a fit of the equation to the concentration-response plot of the fractional activity as a function of inhibitor concentration.

[2] = molecular target: T2, purified wild type MGL (wt-MGLL 6H-11-313) (Homo sapiens, UniProt Q99685); assay: MGL enzyme activity assay (4MU-B cleavage), wild type MGL; format: biochemical; conditions: wild type MGL 5 nM, 4MU-B 10 μM, 37° C.; read-out: MGL wild type inh IC50
T2 construct: purified wild type MGL (wt-MGLL 6H-11-313)
T2 sequence (Q99685 1-303): T1 sequence (Q99685 1-303 L169S/L176S) with S169L, S176L
How it was run: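 Enzyme in 20 mM PIPES pH 7.0, 150 mM NaCl, 0.001% Tween 20 with 4MU-B at 10 μM final and MGL at 5 nM final; compounds 17 to 0.0003 μM final, enzyme added last. Fluorescence (ex 335/em 440 nm) followed at 37° C for 5 min; IC50 from fit of fractional activity versus inhibitor concentration.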

**Q.** O=C(c1ccccc1)N1CC[C@H](NC2CN(C(=O)c3sc4ccccc4c3C3CC3)C2)C1 [Cpd 66, (3S)-N-{1-[(3-Cyclopropyl-1-benzothiophen-2-yl)carbonyl]azetidin-3-yl}-1-(phenylcarbonyl)pyrrolidin-3-amine] was tested. Which IC50 [1] did it give?
**A.** 214 nM

**Q.** Which IC50 [2] does the source give for O=C(c1ccccc1)N1CC[C@H](NC2CN(C(=O)c3cc4cc(-c5ccc(C(F)(F)F)cc5)ccc4s3)C2)C1 [Cpd 52, (3S)-1-(Phenylcarbonyl)-N-[1-({5-[4-(trifluoromethyl)phenyl]-1-benzothiophen-2-yl}carbonyl)azetidin-3-yl]pyrrolidin-3-amine] here?
**A.** 6.6 nM

**Q.** And the IC50 [1]?
**A.** 226 nM

**Q.** For O=C(c1ccccc1)N1CC[C@H](NC2CN(C(=O)c3cc4ccc(Br)cc4s3)C2)C1 [Cpd 38, (3S)-N-{1-[(6-Bromo-1-benzothiophen-2-yl)carbonyl]azetidin-3-yl}-1-(phenylcarbonyl)pyrrolidin-3-amine], which IC50 [1] is on record?
**A.** 301 nM

**Q.** For COC1CN(C(=O)c2ccccc2)CC1NC1CN(C(=O)c2ccc(-c3cccc(C(F)(F)F)c3)cc2)C1 (stereo not drawn) [Cpd 71, trans--4-Methoxy-1-(phenylcarbonyl)-N-(1-{[3′-(trifluoromethyl)biphenyl-4-yl]carbonyl}azetidin-3-yl)pyrrolidin-3-amine], which IC50 [1] is on record?
**A.** 5580 nM

**Q.** For O=C(c1ccc(-c2ccccc2)cc1)N1CC(N[C@H]2CCN(C(=O)c3nccs3)C2)C1 [Cpd 1, (3S)-N-[1-(Biphenyl-4-ylcarbonyl)azetidin-3-yl]-1-(1,3-thiazol-2-ylcarbonyl)pyrrolidin-3-amine], which IC50 [1] is on record?
**A.** 116 nM

**Q.** For O=C(c1ccccc1)N1CC[C@H](NC2CN(C(=O)c3cc4ccc(-c5ccc(C(F)(F)F)cc5)cc4s3)C2)C1 [Cpd 43, (3S)-1-(Phenylcarbonyl)-N-[1-({6-[4-(trifluoromethyl)phenyl]-1-benzothiophen-2-yl}carbonyl)azetidin-3-yl]pyrrolidin-3-amine], which IC50 [1] is on record?
**A.** 267 nM

**Q.** How did the IC50 [1] turn out when O=C(c1ccc(-c2ccccc2)cc1)N1CC(N[C@H]2CCN(C(=O)c3ccc(F)cc3)C2)C1 [Cpd 45, (3S)-N-[1-(Biphenyl-4-ylcarbonyl)azetidin-3-yl]-1-[(4-fluorophenyl)carbonyl]pyrrolidin-3-amine] was run?
**A.** 1630 nM

**Q.** O=C(c1ccc(-c2ccccc2)cc1)N1CC(N[C@@H]2CN(C(=O)c3ccccc3)CC2F)C1 (stereo partly drawn) [Cpd 60, (3R)-N-[1-(Biphenyl-4-ylcarbonyl)azetidin-3-yl]-4-fluoro-1-(phenylcarbonyl)pyrrolidin-3-amine] was tested. Which IC50 [1] did it give?
**A.** > 16700 nM

**Q.** Which IC50 [1] does the source give for O=C(c1ccc2c(-c3ccc(OC(F)(F)F)cc3)cccc2c1)N1CC(N[C@H]2CCN(C(=O)c3ccccc3)C2)C1 [Cpd 26, (3S)-1-(Phenylcarbonyl)-N-[1-({5-[4-(trifluoromethoxy)phenyl]naphthalen-2-yl}carbonyl)azetidin-3-yl]pyrrolidin-3-amine] here?
**A.** 125 nM

**Q.** Which IC50 [1] does the source give for O=C(c1nccs1)N1CC[C@H](NC2CN(C(=O)N3Cc4ccc(Br)cc4C3)C2)C1 [Cpd 12, (3S)-N-{1-[(5-Bromo-1,3-dihydro-2H-isoindol-2-yl)carbonyl]azetidin-3-yl}-1-(1,3-thiazol-2-ylcarbonyl)pyrrolidin-3-amine] here?
**A.** 6210 nM

**Q.** How did the IC50 [1] turn out when O=C(c1ccc(-c2ccccc2)cc1)N1CC(N[C@@H]2CN(C(=O)c3ccccc3)C[C@H]2O)C1 (relative stereo) [Cpd 78, trans-4-{[1-(Biphenyl-4-ylcarbonyl)azetidin-3-yl]amino}-1-(phenylcarbonyl)pyrrolidin-3-ol] was run?
**A.** 13400 nM

**Q.** Which IC50 [1] does the source give for O=C(c1ccc(-c2ccc(OC(F)(F)F)cc2)cc1)N1CC(N[C@H]2CCN(C(=O)c3ccccc3)C2)C1 [Cpd 36, (3S)-1-(Phenylcarbonyl)-N-(1-{[4′-(trifluoromethoxy)biphenyl-4-yl]carbonyl}azetidin-3-yl)pyrrolidin-3-amine] here?
**A.** 189 nM

**Q.** For O=C(c1ccccc1)N1CC[C@H](NC2CN(C(=O)c3cc4cc(C(F)(F)F)ccc4s3)C2)C1 [Cpd 19, (3S)-1-(Phenylcarbonyl)-N-(1-{[5-(trifluoromethyl)-1-benzothiophen-2-yl]carbonyl}azetidin-3-yl)pyrrolidin-3-amine], which IC50 [1] is on record?
**A.** 361 nM

**Q.** For O=C(c1ccc(-c2ccccc2)cc1)N1CC(N[C@H]2CCN(C(=O)c3ccccc3)C2)C1 [Cpd 2, (3S)-N-[1-(Biphenyl-4-ylcarbonyl)azetidin-3-yl]-1-(phenylcarbonyl)pyrrolidin-3-amine], which IC50 [1] is on record?
**A.** 122 nM

**Q.** How did the IC50 [1] turn out when O=C(c1nccs1)N1CC[C@H](NC2CN(C(=O)N3CCc4cc(-c5ccccc5)ccc4C3)C2)C1 [Cpd 11, (S)-(3-((1-(6-Phenyl-1,2,3,4-tetrahydroisoquinoline-2-carbonyl)azetidin-3-yl)amino)pyrrolidin-1-yl)(thiazol-2-yl)methanone] was run?
**A.** 344 nM

**Q.** Which IC50 [1] does the source give for O=C(c1ccc(Cc2ccccc2)cc1)N1CC(N[C@@H]2CCN(C(=O)c3nccs3)C2)C1 [Cpd 6, (3R)-N-{1-[(4-Benzylphenyl)carbonyl]azetidin-3-yl}-1-(1,3-thiazol-2-ylcarbonyl)pyrrolidin-3-amine] here?
**A.** 490 nM

**Q.** How did the IC50 [1] turn out when O=C(c1ccc(Cc2ccccc2)cc1)N1CC(N[C@@H]2CCN(C(=O)c3ccccc3)C2)C1 [Cpd 7, (3R)-N-{1-[(4-Benzylphenyl)carbonyl]azetidin-3-yl}-1-(phenylcarbonyl)pyrrolidin-3-amine] was run?
**A.** 2060 nM

**Q.** How did the IC50 [1] turn out when O=C(c1ccc(-c2ccccc2)cc1)N1CC(N[C@H]2CCN(C(=O)c3cccc(F)c3)C2)C1 [Cpd 46, (3S)-N-[1-(Biphenyl-4-ylcarbonyl)azetidin-3-yl]-1-[(3-fluorophenyl)carbonyl]pyrrolidin-3-amine] was run?
**A.** 336 nM

**Q.** Which IC50 [1] does the source give for O=C(c1ccc(-c2ccccc2)cc1)N1CC(N[C@H]2CCN(C(=O)c3cc4ccccc4s3)C2)C1 [Cpd 48, (3S)-1-(1-Benzothiophen-2-ylcarbonyl)-N-[1-(biphenyl-4-ylcarbonyl)azetidin-3-yl]pyrrolidin-3-amine] here?
**A.** 8970 nM

**Q.** For O=C(c1nccs1)N1CC[C@H](NC2CN(C(=O)N3Cc4ccc(-c5ccccc5)cc4C3)C2)C1 [Cpd 13, (3S)-N-{1-[(5-Phenyl-1,3-dihydro-2H-isoindol-2-yl)carbonyl]azetidin-3-yl}-1-(1,3-thiazol-2-ylcarbonyl)pyrrolidin-3-amine], which IC50 [1] is on record?
**A.** 720 nM

**Q.** Which IC50 [1] does the source give for O=C(c1nccs1)N1CC[C@H](NC2CN(C(=O)N3CCc4cc(Br)ccc4C3)C2)C1 [Cpd 10, (S)-(3-((1-(6-Bromo-1,2,3,4-tetrahydroisoquinoline-2-carbonyl)azetidin-3-yl)amino)pyrrolidin-1-yl)(thiazol-2-yl)methanone] here?
**A.** 2910 nM

**Q.** For O=C(c1ccccc1)N1CCC(NC2CN(C(=O)c3ccc(C(F)c4ccc(C(F)(F)F)cc4)cc3)C2)C1 (stereo not drawn) [Cpd 69, N-{1-[(4-{Fluoro[4-(trifluoromethyl)phenyl]methyl}phenyl)carbonyl]azetidin-3-yl}-1-(phenylcarbonyl)pyrrolidin-3-amine], which IC50 [1] is on record?
**A.** 198 nM

**Q.** O=C(c1ccc(-c2ccc(C(F)(F)F)cc2)cc1)N1CC(N[C@H]2CCN(C(=O)c3ccccc3)C2)C1 [Cpd 35, (3S)-1-(Phenylcarbonyl)-N-(1-{[4′-(trifluoromethyl)biphenyl-4-yl]carbonyl}azetidin-3-yl)pyrrolidin-3-amine] was tested. Which IC50 [1] did it give?
**A.** 158 nM

**Q.** For O=C(c1ccc(-c2ccccc2)cc1)N1CC(N[C@H]2CCN(C(=O)c3cc4ccccc4o3)C2)C1 [Cpd 47, (3S)-1-(1-Benzofuran-2-ylcarbonyl)-N-[1-(biphenyl-4-ylcarbonyl)azetidin-3-yl]pyrrolidin-3-amine], which IC50 [1] is on record?
**A.** 10900 nM

**Q.** With O=C(c1ccccc1)N1CC[C@H](NC2CN(C(=O)c3sc4ccccc4c3-c3ccccc3)C2)C1 [Cpd 65, (3S)-N-{1-[(3-Phenyl-1-benzothiophen-2-yl)carbonyl]azetidin-3-yl}-1-(phenylcarbonyl)pyrrolidin-3-amine] as the molecule, how does the IC50 [1] read?
**A.** 103 nM

**Q.** How did the IC50 [1] turn out when O=C(c1ccc(-c2cccc(C(F)(F)F)c2)cc1)N1CC(N[C@@H]2CN(C(=O)c3ccccc3)C[C@H]2O)C1 (relative stereo) [Cpd 72, trans-1-(Phenylcarbonyl)-4-[(1-{[3′-(trifluoromethyl)biphenyl-4-yl]carbonyl}azetidin-3-yl)amino]pyrrolidin-3-ol] was run?
**A.** 757 nM
